As a reminder, the GI50 is the concentration giving 50% growth inhibition.

In series [1] the test system is MDA-MB-231. In words: Initial screening, SRB assay GI50. Type of series: cell-based. The settings on record: Homo sapiens, 48 hrs. As for the experimental part:
(§1) For initial screening, the GIso of compounds 4a-4h in the cell lines MDA-MB-231, MDA-MB-435 and MCF-7 was determined via the SRB-assay for 48 hrs as follows:
(§2) A stock solution of compounds was prepared at 50 mM in 100% DMSO. For cells preparation, a flask of 75 cm^2 or 25 cm^2 were used for 2.6×10^5 cells/mL or 1.44×10^5 cells/mL, respectively, with an 80-90% of confluence. Cells were washed with PBS and trypsinized. The concentration of cells was determined using a 1:2 dilutions with Trypan Blue and a hemocytometer. After cell count, the concentration was adjusted to have a 7.0-10.0×10^4 cells/mL. Approximately 100 μL of cells suspension, compounds, control positive and control negative were added in triplicates to a 96 well plate. Positive control used was doxorubicin, and the negative control was DMSO 0.1%. All compounds (4a-h) at 50, 25, 12.5, 6.3, and 1.6 μM were incubated with cells at 37° C. for 48 hrs. For fixation, cold TCA 50% was used and incubated at 4° C. for 1 h. Wells were washed and dried prior to tincture with 100 μL of SRB 0.4%. To remove excess of SRB, acetic acid was used. For analysis, TRIS-BASE Solution (pH=10.5) was used and shaken prior to reading using an ELISA reader at 540 nm and the software SoftMax Pro 4.8. For each compound, 50% growth inhibition (GI50) was calculated from Sigmoidal dose-response curves (variable-slope) that were generated with data obtained from experiments carried out in triplicates (GI50 values were generated with GraphPad Prism V. 6.02, GraphPad Software, Inc.).

Another series deals with MCF-7. In words: Initial screening, SRB assay GI50. Type of series: cell-based. The following applies: Homo sapiens, MCF7, 48 hrs. As for the experimental part:
as §1, §2
(Sulforhodamine B stains cellular protein and so reports cell mass.)

Series [2] deals with MDA-MB-435. Put plainly: Initial screening, SRB assay GI50. It counts as cell-based. The following applies: Homo sapiens, 48 hrs, read-out: MDA-MB435 GI50. As for the experimental part: as §1, §2
Series [3] relates to MDA-MB-231. Put plainly: Initial screening, inhibition of migration (wound gap). The following applies: Homo sapiens; for inhibition at 0.5 µM: read-out: Inh. of migration (converted). It counts as cell-based. As for the experimental part:
In addition, the inhibition of migration of MDA-MB-231 was determined via the following procedure:
Prior to assays, cells were grown until 80-90% confluence was observed. We used a 75 cm^2 flask for 2.6×10^5 cells/mL in 10 mL and for a 25 cm^2 flask 1.44×10^5 cells/mL in 5 mL. The cells were washed with PBS to remove all traces of FBS. We added 2 mL for a 25 cm^2 flasks or 4 mL for a 75 cm^2 flasks trypsin, and incubated 5-10 min at 37° C. At the end of the incubation time, cells were re-suspended and counted with hemocytometer using 1:2 dilutions with Trypan blue. Subsequently, cell viability was calculated. In a 12 well tissue culture plate, we used the plastic pattern to draw a fine space with a fine marker on the bottom of the plate. Cells were seeded at 1.5-2.2×10^5 cells/mL in 1 mL and incubated for 24 h. Cells were then rinsed with PBS and incubated in starving media (0.5% FBS) overnight. All controls and drugs were tested in triplicate. The negative control for each drug was prepared according to the drug's DMSO concentration. […] The wound was made using a sterile pipette tip of 200 μL. Cells were then rinsed very gently with media without FBS and media with negative controls was added. After a 24 h incubation, the gap distance was evaluated using the software Lumera Infinity Analyze 6.4.0. Pictures were taken at 0, 8, 12 and 24 h using a 10× objective in an Inverted Laboratory Microscope Leica DM IL LED, and an Infinity1-3 3.1 Megapixel USB 2.0 camera CMOS. The percentage of migration was calculated using the following formula: […]

The subject of series [4] is MDA-MB-435. In words: Cell viability assay (MTT). The settings on record: for GI50: MTT, 72 hrs, read-out: GI50 MDA-MB-435; for GI50 / effect on viability of MDA-MB-435: 0-1000 nM; for effect on viability of MDA-MB-435: 72 h. Type of series: cell-based, human. As for the experimental part:
Cells plated at equal density were treated at 500 nM of compounds. After 72 hours, cell viability was measured by a MTT assay. n=3; * p<0.05, ** p<0.01, *** p<0.001.
(§3) Cells plated at equal density were treated at 250 nM of 4c at 250 nM.
(§4) Data from 3 biologic replicates each with 2 technical replicates. Four parameter dose-response curves generated using GraphPad Prism are shown.
[…]. GI50 was calculated using Graph pad Prism.
(§5) […] Using CellTiter 96 Non-Radioactive Cell Proliferation Assay (Promega, Corp.) according to manufactures' instructions, formazan was used as an indicator of viable cells at an absorbance 570 nm in a Tecan Microplate Reader M100. Data was calculated as fold change from vehicle and fitted using the 4′parameter logic nonlinear regression model in GraphPad Prism software. (n=3 biologic replicates: with 3 technical replicates each).
A range of compounds were tested by MTT assays for cell viability in MDA-MB-231 triple negative breast cancer (TNBC) cells and MDA-MB-435 HER2++ cancer cells. […].

Series [5] relates to MDA-MB-231. Put plainly: Cell viability assay (MTT). Type of series: cell-based. The settings on record: Homo sapiens; for inhibition at […]: MDA-MB-231, 250 nM for 48 hours (footnote a; title says 500 nM), read-out: % growth inhibition MDA-MB-231. As for the experimental part:
Cells plated at equal density were treated at 500 nM of compounds. […]
as §3, §4
Cell viability relative to vehicle (100%) is shown.
as §5
A range of compounds were tested by MTT assays for cell viability in MDA-MB-231 triple negative breast cancer (TNBC) cells and MDA-MB-435 HER2++ cancer cells.

For another series, the system named is Rac. Put plainly: Rac activation pulldown (GST-CRIB of PAK) in MDA-MB-435 cells. The settings on record: 24 hours. It counts as cell-based, human.
Source text: (§6) Cells were lysed and equal amounts of proteins were subjected to pull-down assays using a GST-fusion protein of the Cdc42-rac interactive binding (CRIB) domain of P21-activated kinase (PAK). The pulldowns of Rac.GTP and whole cell lysates were western blotted with a pan Rac1/2/3 antibody.
as §6

Consider `CCn1c2ccccc2c2cc(-n3nnc(C(O)c4ccco4)c3-c3ccccc3)ccc21` (stereo not shown) [Compound 4a, (1-(9-ethyl-9H-carbazol-3-yl)-5-phenyl-1H-1,2,3-triazol-4-yl) (furan-2-yl) methanol], for which the GI50 amounted to 17.5 µM with MDA-MB-231 [1], 20.6 µM in the series on MCF-7 and 0.36 µM in the series on MDA-MB-435 [2]. The inhibition at 6.6 µM in the series on MDA-MB-231 [3] (at 6.6 μM, read-out: Inh. of migration) came to 55 ± 13.6%. Also, in the series on MDA-MB-435 [4] (Homo sapiens, MDA-MB-435, 500 nM, 72 hours, read-out: decrease in cell viability, MDA-MB-435), the cytotoxicity at 0.5 µM is roughly 80%.
Regarding `CCn1c2ccccc2c2cc(-n3nnc(C(O)c4cccs4)c3-c3ccccc3)ccc21` (stereo not shown) [Compound 4d, (1-(9-ethyl-9H-carbazol-3-yl)-5-phenyl-1H-1,2,3-triazol-4-yl) (thiophen-2-yl) methanol], the figures for the GI50 in the series on MDA-MB-231 [1], in the series with MCF-7 and with MDA-MB-435 [2] were 20.4 µM, 12 µM and 19.6 µM, respectively. Moreover, the inhibition at 0.5 µM in the series on MDA-MB-231 [3] is 8.7%. Also, the inhibition at 4.1 µM in the series with MDA-MB-231 [3] (at 4.1 μM, read-out: Inh. of migration) worked out at 57.5 ± 10.6%.
With `CCn1c2ccccc2c2cc(-n3nnc(C(O)c4ccc(OC)cc4)c3-c3ccccc3)ccc21` (stereo not shown) [Compound 4e, (1-(9-ethyl-9H-carbazol-3-yl)-5-phenyl-1H-1,2,3-triazol-4-yl) (4-methoxyphenyl) methanol], the GI50 in the series with MDA-MB-231 [1] worked out at 26.2 µM; in the series with MCF-7 it was 10.6 µM; in the series with MDA-MB-435 [2] it was 32.9 µM. In addition, the inhibition at 0.5 µM in the series on MDA-MB-231 [3] was 36.1%. In addition, in the series on MDA-MB-231 [3] (at 5.3 μM, read-out: Inh. of migration), the inhibition at 5.3 µM came out at 57 ± 12.3%.
`CCn1c2ccccc2c2cc(-n3nnc(C(O)c4ccc([N+](=O)[O-])cc4)c3-c3ccccc3)ccc21` (stereo not shown) [Compound 4f, (1-(9-ethyl-9H-carbazol-3-yl)-5-phenyl-1H-1,2,3-triazol-4-yl) (4-nitrophenyl) methanol]: the GI50 is 11.2 µM with MDA-MB-231 [1], 9.7 µM in the series with MCF-7 and 7.5 µM in the series on MDA-MB-435 [2]. Moreover, in the series with MDA-MB-231 [3], the inhibition at 0.5 µM is 22.1%. Also, the inhibition at 2.2 µM in the series on MDA-MB-231 [3] (at 2.2 μM, read-out: Inh. of migration) was 61.1 ± 6.12%.
Turning to `CCn1c2ccccc2c2cc(-n3nnc(C(O)c4ccc(C)cc4)c3-c3ccccc3)ccc21` (stereo not shown) [Compound 4g, (1-(9-ethyl-9H-carbazol-3-yl)-5-phenyl-1H-1,2,3-triazol-4-yl) (p-tolyl) methanol], the GI50 in the series on MDA-MB-231 [1] was 7.9 µM; with MCF-7 it was 13.5 µM; in the series with MDA-MB-435 [2] it was 2.2 µM. In the series on MDA-MB-231 [3] (at 1.6 μM, read-out: Inh. of migration), the inhibition at 1.6 µM was determined as 15.1 ± 10.7%.
`CCn1c2ccccc2c2cc(-n3nnc(C(O)c4ccccc4)c3-c3ccccc3)ccc21` (stereo not shown) [Compound 4h, (1-(9-ethyl-9H-carbazol-3-yl)-5-phenyl-1H-1,2,3-triazol-4-yl) (phenyl) methanol]: the GI50 in the series on MDA-MB-231 [1] was determined as 24.3 µM; in the series on MCF-7 it was 9.6 µM; with MDA-MB-435 [2] it was 22.6 µM. In addition, in the series on MDA-MB-231 [3], the inhibition at 0.5 µM is 11.1%. Further, in the series on MDA-MB-231 [3] (at 4.9 μM, read-out: Inh. of migration), the inhibition at 4.9 µM was determined as 65.4 ± 11.9%.
Consider `CCn1c2ccccc2c2cc(-n3nnc(C#N)c3-c3ccccc3)ccc21` [Compound 5, 1-(9-ethyl-9H-carbazol-3-yl)-5-phenyl-1H-1,2,3-triazole-4-carbonitrile], for which, in the series on MDA-MB-435 [4] (Homo sapiens, MDA-MB-435), the GI50 came to 0.045 µM. In the series with MDA-MB-435 [4] (MDA-MB-435, 72 h GI50), the “cytotoxicity relative to MBQ-167” value is on record as roughly 3 ×. Moreover, in the series on MDA-MB-231 [5], the inhibition at […] turned out to be 46%. Moreover, the cytotoxicity at […] in the series on MDA-MB-231 [5] (250 nM, 48h, text prints MDA-MB-435 TNBC, read-out: inhibition of cell viability) was determined as 50%. Also, the “% Rac inhibition” value is roughly 30% in the series with Rac (10 nM), greater than 90% in the series on Rac (50 nM) and greater than 90% with Rac (100 nM).
As for `CCOC(=O)c1nnn(-c2ccc3c(c2)c2ccccc2n3CC)c1-c1ccccc1` [Compound 6, Ethyl 1-(9-ethyl-9H-carbazol-3-yl)-5-phenyl-1H-1,2,3-triazole-4-carboxylate], in the series on MDA-MB-435 [4], the “effect on viability of MDA-MB-435” value is listed as “reduced the viability”. The GI50 in the series with MDA-MB-435 [4] (Homo sapiens, MDA-MB-435) was roughly 5 µM. In the series on MDA-MB-231 [5], the inhibition at […] was determined as 32%.
For the molecule `CCn1c2ccccc2c2cc(-n3nnc(C(=O)O)c3-c3ccccc3)ccc21` [Compound 7, 1-(9-Ethyl-9H-carbazol-3-yl)-5-phenyl-1H-1,2,3-triazole-4-carboxylic acid], the “effect on viability of MDA-MB-435” value with MDA-MB-435 [4] is on record as “reduced the viability”. Moreover, in the series on MDA-MB-231 [5], the inhibition at […] stood at 29%.
Regarding `CCn1c2ccccc2c2cc(-n3nnc(C(=O)N4CCOCC4)c3-c3ccccc3)ccc21` [Compound 8, (1-(9-ethyl-9H-carbazol-3-yl)-5-phenyl-1H-1,2,3-triazol-4-yl) (morpholino) methanone], the “effect on viability of MDA-MB-435” value in the series on MDA-MB-435 [4] is reported as “did not have an effect”. In addition, the GI50 in the series with MDA-MB-435 [4] (Homo sapiens, MDA-MB-435) was roughly 1 µM. Moreover, in the series with MDA-MB-231 [5], the inhibition at […] is -11%. Also, the “% Rac inhibition” value in the series with Rac (250 nM) is given as 250 nM : <20%.
In the case of `CCn1c2ccccc2c2cc(-n3nnc(C(=O)NCCCN4CCOCC4)c3-c3ccccc3)ccc21` [Compound 9, 1-(9-ethyl-9H-carbazol-3-yl)-N-(3-morpholinopropyl)-5-phenyl-1H-1,2,3-triazole-4-carboxamide], the “effect on viability of MDA-MB-435” value in the series with MDA-MB-435 [4] is “reduced the viability”. Also, the GI50 with MDA-MB-435 [4] (Homo sapiens, MDA-MB-435) is greater than 10 µM. The inhibition at […] with MDA-MB-231 [5] was 13%. Further, the “% Rac inhibition” value in the series on Rac (250 nM) is reported as 250 nM : <20%.
With `CCn1c2ccccc2c2cc(-n3nnc(C(=O)c4cccs4)c3-c3ccccc3)ccc21` [Compound 10, (1-(9-Ethyl-9H-carbazol-3-yl)-5-phenyl-1H-[1,2,3]triazol-4-yl)-thiophen-2-yl-methanone], the figures for the GI50 with MDA-MB-231 [1], with MCF-7 and in the series with MDA-MB-435 [2] were 0.915 µM, 0.19 µM and 23.3 µM, respectively.

For the origin of these results see patent US20250214973A1, “1,4,5-TRISUBSTITUTED-1,2,3-TRIAZOLES AND USES THEREOF” (UNIVERSITY OF PUERTO RICO, priority 2022, published 2025).
